# From patent US20230133672A1, “FUSION POLYPEPTIDE COMPRISING GDF15 AND POLYPEPTIDE REGION CAPABLE OF O-GLYCOSYLATION” (LG CHEM, LTD., priority 2019, published 2023)
# What was measured:
# [1] = Repeated administration: body weight change in DIO mice; type: in vivo, Mouse, C57BL/6J-DIO
# Description: The body weight of each mouse was measured on the day of the start of administration of the test substances (before administration), and thereafter, the body weight was measured every day ([…]), and the amount of the administration solution of the test substances was determined on the basis of the most recently measured body weight.
# (§1) All the experimental results obtained in the present example were expressed as mean±standard error and tested using Prism5 (version 5.01). One-way analysis of variance (ANOVA) was performed on all data, and when significance was observed, Dunnett's test was performed to find out the test groups with a significant difference from the control group (significance level: two-sided 5% and 1%, 0.1%).
# (§2) Except for the administration dose, animal number and administration cycle, most of the test processes were the same as in Example 2.1.1 above.
# (§3) The test substances were administered twice a week (Days 0, 4, 7, 11, 14, 18, 21, 25) for a total of 8 times. For comparison, the control group in which the control substance Semaglutide was administered every day was prepared, and the comparison group in which Semaglutide was administered every day was administered once a day daily, and all the administration was progressed from 9 AM.
# [2] = Repeated administration: feed intake in DIO mice; type: in vivo, Mouse, C57BL/6J-DIO; parameters: unit not given here
# Description: (§4) In addition, after administering the test substances into mice, the daily feed intake was measured, and the feeding amount was measured using an electronic scale for each breeding box, and the remaining amount was measured to calculate the daily feed intake. In case of an individual that gnawed heavily on heed, it was excluded from the measurement.
# as §1, §2, §3
# [3] = Single administration: feed intake in DIO mice; type: in vivo, Mouse, C57BL/6J-DIO; parameters: unit not given here
# Description: (§5) The pharmacological effect of the fusion polypeptides produced and purified in Example 1 above was tested in mice (C57BL/6J, 6-week-old, male, 100 mice; Raonbio).
# (§6) In the present example, DI0 mouse model (Mouse, C57BL/6J-DIO, male, 100 mice, 14-week-old (obesity feed feeding for 8 weeks)) in which obesity was induced by feeding a high-fat diet into the C57BL/6J mice for 8 weeks was used.
# (§7) The administration of the test substances HT-ID1-GDF15, HT-ID2-GDF15, and HT-ID3-GDF15 and the control substance Semaglutide (Bachem) was conducted from the next day after group separation, and the administration time was performed at 9 AM every day. Subcutaneous administration was conducted for all the control substance and test substances. For the administration route of the control substance and test substances, subcutaneous administration was selected depending on the clinically scheduled administration route.
# (§8) For all the control substance and test substances, the amount of the administration solution was set to 5 mL/kg and the administration liquid by individual was calculated on the basis of the recently measured body weight and it was administered by subcutaneous injection once on the start day of the test using a disposable syringe (1 mL). The test substances were administered only once. For comparison, the control group in which the control substance Semaglutide was administered was prepared, and the comparison group in which Semaglutide was administered was administered once a day, and all the administration was progressed from 9 AM.
# as §4, §1
# [4] = Single administration: body weight change in DIO mice; type: in vivo, Mouse, C57BL/6J-DIO; details: for Body Weight (Group, % of initial): daily s.c. injection, mean
# Description: as §5, §6, §7, §8
# As for the observation, measurement and test schedule for the test groups, the administration start date was set to Day 0, and 7 days from the administration start date were set to one week of administration.
# The body weight of each mouse was measured on the day of the start of administration of the test substances (before administration), and thereafter, the body weight was measured every day (measured up to 9 days), and the amount of the administration solution of the test substances was determined on the basis of the most recently measured body weight.
# as §1
# [5] = Pharmacokinetic test, subcutaneous administration to SD rats (serum ELISA, Human GDF15 Immunoassay); type: in vivo; details: 2 mg/kg subcutaneous
# Description: For evaluation of pharmacokinetic characteristics when each fusion polypeptide was subcutaneously administered to rats, the fusion polypeptides HT-ID1-GDF15, HT-ID2-GDF15 and HT-ID3-GDF15 were subcutaneously administered into SD rats (Koatech, male, 7-week-old, about 250 g; n=3 each; test group) in an amount of 2 mg/kg, respectively, and about 200 μl of blood was collected through the caudal vein at a predetermined time. The blood collection time was performed before administration, and 1, 2, 4, 8, 24, 48, 72, 96, 168, 240 and 336 hours after administration. As the control group for comparison of pharmacokinetic characteristics, GDF15 (R&D Systems) was subcutaneously administered in an amount of 2 mg/kg by the same method to prepare a GDF15 administration group.
# After administering into SD Rats as above, blood collected by time-point was centrifuged to obtain serum, and ELISA was performed using Human GDF15 Immunoassay (SGD150, R&D Systems), and the concentration in the serum was measured depending on the time of each polypeptide.
substance,measurement,setting,value
Semaglutide [reference compound],"Body Weight, Mean","[1]; Day 0, 3 nmol/kg once a day",100.0 % of initial
same,"Body Weight, Mean","[1]; Day 1, 3 nmol/kg once a day",93.9 % of initial
same,"Body Weight, Mean","[1]; Day 2, 3 nmol/kg once a day",92.6 % of initial
same,"Body Weight, Mean","[1]; Day 3, 3 nmol/kg once a day",90.4 % of initial
same,"Body Weight, Mean","[1]; Day 4, 3 nmol/kg once a day",88.4 % of initial
same,"Body Weight, Mean","[1]; Day 5, 3 nmol/kg once a day",66.2 % of initial
same,"Body Weight, Mean","[1]; Day 6, 3 nmol/kg once a day",64.1 % of initial
same,"Body Weight, Mean","[1]; Day 7, 3 nmol/kg once a day",82.6 % of initial
same,"Body Weight, Mean","[1]; Day 8, 3 nmol/kg once a day",61.9 % of initial
same,"Body Weight, Mean","[1]; Day 9, 3 nmol/kg once a day",80.7 % of initial
same,"Body Weight, Mean","[1]; Day 10, 3 nmol/kg once a day",80.3 % of initial
same,"Body Weight, Mean","[1]; Day 11, 3 nmol/kg once a day",80.3 % of initial
same,"Body Weight, Mean","[1]; Day 12, 3 nmol/kg once a day",79.1 % of initial
same,"Body Weight, Mean","[1]; Day 13, 3 nmol/kg once a day",76.8 % of initial
same,"Body Weight, Mean","[1]; Day 14, 3 nmol/kg once a day",76.7 % of initial
same,"Body Weight, Mean","[1]; Day 15, 3 nmol/kg once a day",78.1 % of initial
same,"Body Weight, Mean","[1]; Day 16, 3 nmol/kg once a day",78.3 % of initial
same,"Body Weight, Mean","[1]; Day 17, 3 nmol/kg once a day",77.2 % of initial
same,"Body Weight, Mean","[1]; Day 18, 3 nmol/kg once a day",76.7 % of initial
same,"Body Weight, Mean","[1]; Day 19, 3 nmol/kg once a day",77.1 % of initial
same,"Body Weight, Mean","[1]; Day 20, 3 nmol/kg once a day",76.1 % of initial
same,"Body Weight, Mean","[1]; Day 21, 3 nmol/kg once a day",76.8 % of initial
same,"Body Weight, Mean","[1]; Day 22, 3 nmol/kg once a day",75.9 % of initial
same,"Body Weight, Mean","[1]; Day 23, 3 nmol/kg once a day",75.6 % of initial
same,"Body Weight, Mean","[1]; Day 24, 3 nmol/kg once a day",76.0 % of initial
same,"Body Weight, Mean","[1]; Day 25, 3 nmol/kg once a day",76.3 % of initial
same,"Body Weight, Mean","[1]; Day 26, 3 nmol/kg once a day",76.5 % of initial
same,"Body Weight, Mean","[1]; Day 27, 3 nmol/kg once a day",76.2 % of initial
same,"Body Weight, Mean","[1]; Day 28, 3 nmol/kg once a day",75.7 % of initial
same,"Feed intake, Mean","[2]; Day 1, 3 nmol/kg once a day",2.9
same,"Feed intake, Mean","[2]; Day 2, 3 nmol/kg once a day",0.7
same,"Feed intake, Mean","[2]; Day 3, 3 nmol/kg once a day",1.3
same,"Feed intake, Mean","[2]; Day 4, 3 nmol/kg once a day",1.4
same,"Feed intake, Mean","[2]; Day 5, 3 nmol/kg once a day",1.7
same,"Feed intake, Mean","[2]; Day 6, 3 nmol/kg once a day",1.5
same,"Feed intake, Mean","[2]; Day 7, 3 nmol/kg once a day",1.6
same,"Feed intake, Mean","[2]; Day 8, 3 nmol/kg once a day",1.9
same,"Feed intake, Mean","[2]; Day 9, 3 nmol/kg once a day",2.0
same,"Feed intake, Mean","[2]; Day 10, 3 nmol/kg once a day",2.3
same,"Feed intake, Mean","[2]; Day 11, 3 nmol/kg once a day",2.2
same,"Feed intake, Mean","[2]; Day 12, 3 nmol/kg once a day",3.2
same,"Feed intake, Mean","[2]; Day 13, 3 nmol/kg once a day",2.2
same,"Feed intake, Mean","[2]; Day 14, 3 nmol/kg once a day",2.5
same,"Feed intake, Mean","[2]; Day 15, 3 nmol/kg once a day",2.5
same,"Feed intake, Mean","[2]; Day 16, 3 nmol/kg once a day",2.2
same,"Feed intake, Mean","[2]; Day 17, 3 nmol/kg once a day",2.4
same,"Feed intake, Mean","[2]; Day 18, 3 nmol/kg once a day",2.2
same,"Feed intake, Mean","[2]; Day 19, 3 nmol/kg once a day",2.6
same,"Feed intake, Mean","[2]; Day 20, 3 nmol/kg once a day",2.6
same,"Feed intake, Mean","[2]; Day 21, 3 nmol/kg once a day",2.5
same,"Feed intake, Mean","[2]; Day 22, 3 nmol/kg once a day",2.9
same,"Feed intake, Mean","[2]; Day 23, 3 nmol/kg once a day",2.0
same,"Feed intake, Mean","[2]; Day 24, 3 nmol/kg once a day",2.4
same,"Feed intake, Mean","[2]; Day 25, 3 nmol/kg once a day",2.9
same,"Feed intake, Mean","[2]; Day 26, 3 nmol/kg once a day",2.4
same,"Feed intake, Mean","[2]; Day 27, 3 nmol/kg once a day",2.4
same,"Feed intake, Mean","[2]; Day 28, 3 nmol/kg once a day",2.7
same,"Feed intake, Mean","[3]; Day 0, 3 nmol/kg Daily Inj.",3.7
same,"Feed intake, Mean","[3]; Day 1, 3 nmol/kg Daily Inj.",2.1
same,"Feed intake, Mean","[3]; Day 2, 3 nmol/kg Daily Inj.",3.3
same,"Feed intake, Mean","[3]; Day 3, 3 nmol/kg Daily Inj.",2.8
same,"Feed intake, Mean","[3]; Day 4, 3 nmol/kg Daily Inj.",2.3
same,"Feed intake, Mean","[3]; Day 5, 3 nmol/kg Daily Inj.",2.9
same,"Feed intake, Mean","[3]; Day 6, 3 nmol/kg Daily Inj.",2.7
same,"Feed intake, Mean","[3]; Day 7, 3 nmol/kg Daily Inj.",3.2
same,"Feed intake, Mean","[3]; Day 8, 3 nmol/kg Daily Inj.",2.4
same,"Feed intake, Mean","[3]; Day 9, 3 nmol/kg Daily Inj.",3.7
same,body weight loss effect,[4]; 3 nmol/kg daily s.c. administration,body weight loss effect was continuously shown from Day 1 after administration
same,"Body Weight (Group, % of initial)","[4]; Day 0, 3 nmol/kg",100 % of initial
same,"Body Weight (Group, % of initial)","[4]; Day 1, 3 nmol/kg",94 % of initial
same,"Body Weight (Group, % of initial)","[4]; Day 2, 3 nmol/kg",91 % of initial
same,"Body Weight (Group, % of initial)","[4]; Day 3, 3 nmol/kg",90 % of initial
same,"Body Weight (Group, % of initial)","[4]; Day 4, 3 nmol/kg",87 % of initial
same,"Body Weight (Group, % of initial)","[4]; Day 5, 3 nmol/kg",87 % of initial
same,"Body Weight (Group, % of initial)","[4]; Day 6, 3 nmol/kg",85 % of initial
same,"Body Weight (Group, % of initial)","[4]; Day 7, 3 nmol/kg",86 % of initial
same,"Body Weight (Group, % of initial)","[4]; Day 8, 3 nmol/kg",83 % of initial
same,"Body Weight (Group, % of initial)","[4]; Day 9, 3 nmol/kg",85 % of initial
"rhGDF15: GDF15 (R&D Systems), not fused, control group for comparison of pharmacokinetic characteristics",half-life,[5],19 h
same,AUCextp (%) [(AUCinf − AUClast)/AUCinf]*100,[5]; serum,0.463%
same,AUClast,[5]; serum,4.86 µg·h/mL
same,Cmax (maximum concentration in blood),[5]; serum,0.443 µg/mL
same,Tmax (reaching time to maximum concentration in blood),[5]; serum,1 h
same,t1/2 (loss half-life),[5]; serum,19.0 h
same,AUCinf,"[5]; serum, extrapolated to infinity",4.88 µg·h/mL
